Measured values as given in PubChem BioAssay (NCI).
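Dose response: 5 concentrations. Exposure: 48 h. Format: 96-well plates. Endpoint: linear interpolation; highest concentration if not reached. GI50 marks 50% less growth. TGI denotes the concentration required for complete inhibition of growth.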

Legend:
Test in all cases: inhibition of tumour cell growth, NCI panel, 48 h
[1] = tested on: HCC-2998 colon
[2] = tested on: OVCAR-5 ovarian
[3] = tested on: UACC-62 melanoma
[4] = tested on: KM12 colon
[5] = tested on: HCT-116 colon
[6] = tested on: IGROV1 ovarian
[7] = tested on: OVCAR-3 ovarian
[8] = tested on: TK-10 renal
[9] = tested on: SK-MEL-28 melanoma
[10] = tested on: MDA-MB-231 breast

SMILES	GI50 [1]	TGI [1]	GI50 [2]	TGI [2]	GI50 [3]	TGI [3]	GI50 [4]	TGI [4]	GI50 [5]	TGI [5]	GI50 [6]	TGI [6]	GI50 [7]	TGI [7]	GI50 [8]	TGI [8]	GI50 [9]	TGI [9]	TGI [10]	GI50 [10]
CC[O-].CC[O-].O=C1C=C([O-])C(=O)c2ccccc21.O=C1C=C([O-])C(=O)c2ccccc21.[Ti+4]	46.1 µM	> 100 µM	> 100 µM	> 100 µM	21.5 µM	> 100 µM	> 90.8 µM	> 100 µM	43.2 µM	> 100 µM	> 100 µM	> 100 µM	> 100 µM	> 100 µM	> 67.7 µM	> 100 µM	> 100 µM	> 100 µM	–	–
CC(=O)OC(COc1ccc2c(c1)[n+]([O-])nc(N)[n+]2[O-])CN1CCCCC1 (stereo not given)	–	22.5 µM	–	61.2 µM	–	–	–	50.4 µM	–	59.2 µM	–	–	–	38 µM	–	96.4 µM	–	> 100 µM	28 µM	–
COc1ccc2nc3cc([N+](=O)[O-])ccc3c(NCCO)c2c1	–	–	5.55 µM	28.1 µM	1.93 µM	5.23 µM	2.17 µM	6.8 µM	2.2 µM	10.5 µM	3.17 µM	13.6 µM	2.41 µM	10.2 µM	–	–	5.41 µM	–	28.1 µM	4.4 µM
O=C(O)c1ccc(CSc2nc3ccccc3[nH]2)cc1	> 100 µM	> 100 µM	> 100 µM	> 100 µM	–	–	> 100 µM	> 100 µM	> 100 µM	> 100 µM	> 100 µM	> 100 µM	> 100 µM	> 100 µM	> 100 µM	> 100 µM	> 100 µM	> 100 µM	> 100 µM	> 100 µM
CC1=C2CC[C@@]3(C)C(=CCC3O)C2(C)CCC1=O (stereo not given in full)	–	> 100 µM	–	> 100 µM	–	> 100 µM	–	> 100 µM	–	> 100 µM	–	> 100 µM	–	> 100 µM	–	> 100 µM	–	> 100 µM	–	–
CC(=O)Oc1ccc2c(=O)c(C(C)=O)coc2c1	–	–	–	> 100 µM	–	–	–	> 100 µM	–	> 100 µM	–	> 100 µM	–	> 100 µM	–	> 100 µM	–	> 100 µM	–	–
OC1CC(O)O[C@H](c2ccccc2)C1 (stereo not given in full)	–	> 100 µM	–	> 100 µM	–	> 100 µM	–	> 100 µM	–	> 100 µM	–	> 100 µM	–	> 100 µM	–	> 100 µM	–	> 100 µM	–	–
O=C1CCc2cc(Br)ccc2O1	–	> 100 µM	–	> 100 µM	–	> 100 µM	–	–	–	> 100 µM	–	> 100 µM	–	> 100 µM	–	> 100 µM	–	> 100 µM	–	–
COC(=O)c1cc(O)ccc1O	–	> 100 µM	–	> 100 µM	–	> 100 µM	–	> 100 µM	–	–	–	> 100 µM	–	> 100 µM	–	> 100 µM	–	> 100 µM	–	–
CCOC(=O)c1c(-c2ccccc2)n2c(=O)cc(C)c3c(O)c(O)cc1c32	–	–	22.5 µM	46.7 µM	7.94 µM	20.9 µM	6.74 µM	38.7 µM	2.8 µM	11.9 µM	4.99 µM	19.2 µM	2.38 µM	17 µM	22.7 µM	> 100 µM	12.7 µM	29.3 µM	27.7 µM	6.64 µM
COc1cc2c(Nc3ccc(-c4ccc(N)cc4)cc3)ncnc2c(OC)c1OC	–	–	6.29 µM	> 100 µM	0.522 µM	> 35.1 µM	0.615 µM	41.6 µM	3.79 µM	55.3 µM	12.6 µM	> 100 µM	6.43 µM	> 59.3 µM	21 µM	> 100 µM	11.9 µM	> 100 µM	> 100 µM	2.9 µM
OC1(C(Sc2ccccc2)Sc2ccccc2)CCCCCC1	–	–	–	–	–	28.5 µM	–	> 100 µM	–	72.3 µM	–	–	–	45.7 µM	–	> 100 µM	–	> 100 µM	–	–
NNC(=O)/C(NC(=O)c1ccccc1)=C(\N)c1cccc([N+](=O)[O-])c1	–	> 100 µM	–	> 100 µM	–	> 100 µM	–	> 100 µM	–	> 100 µM	–	> 100 µM	–	> 100 µM	–	> 100 µM	–	> 100 µM	–	–
C=C(C)COc1ccc2c(c1)CCC1C2CCC2(C)C(=O)/C(=N/O)CC12 (stereo not given)	–	–	–	18.7 µM	–	28.5 µM	–	5.77 µM	–	3.08 µM	–	4.6 µM	–	14.6 µM	–	5.58 µM	–	33.3 µM	4.93 µM	–
